Experimental data reported in article PMC8657793, “Synthesis, In Vitro and In Silico Anticancer Activity of New 4-Methylbenzamide Derivatives Containing 2,6-Substituted Purines as Potential Protein Kinases Inhibitors” (International Journal of Molecular Sciences, 2021).
Values joined by “and” are separate entries in the source; they are usually repeats but may differ in a detail not shown here. Identical values can stand only once.

Experiments:
OKP-GS cells [1] = assay: Annexin-V/propidium iodide apoptosis assay by flow cytometry; type: cell-based, human; settings: for Living cells: Figure 3; for Level of apoptosis compared with sorafnib / Number of necrotic cells: 72 h; for Number of necrotic cells: 5, 10 and 20 μM
Experimental: Apoptosis is a versatile and extremely effective pathway for cell death. This phenomenon can be caused by internal signals, such as genotoxic stress, or external signals, such as the binding of ligands to death receptors on the cell surface. The induction of apoptosis was studied by measuring the translocation of phosphatidylserine from the cytoplasmic to the extracellular side of the plasma membrane. OKP-GS cells were treated with compound 7 or 10 at 5, 10 and 20 μM for 72 h, after which annexin-V/propidium iodide (PI) binding was measured by flow cytometry (Figure 2).
Tumor cells were plated on a 6-well plate at a density of 100.000 per well for OKP-GS. Test compounds 7 and 10 were added at concentrations of 5, 10, and 20 μM for 72 h. Then, the cells were washed from the culture medium by centrifugation at 1000 rpm for 5 min, washed again with phosphate buffer, then the Annexin V-FITC and PI dyes from the Annexin 5A-FITC Kit (Beckman Coulter, Brea, CA, USA) were added, according to the manufacturer’s instructions. Colored suspensions were incubated for 15 min in the dark on ice and measured on a Cytomics FC500 Beckman Coulter flow cytometer (channels FL1 for Annexin V-FITC and FL4 for PI). Data were analyzed with Kaluza 2.0 Software (Beckman Coulter, Brea, CA, USA).

OKP-GS cells [2] = assay: Cell cycle distribution, propidium iodide staining, flow cytometry; type: cell-based, human; settings: 72 h
Experimental: To assess changes in the distribution of cells by phases of the cell cycle, we used the method of staining fixed samples with propidium iodide (Calbiochem, USA). Pre-fixation of cells was carried out with 70% ethanol for […]. To exclude the binding of propidium iodide to RNA, the fixed samples were treated with RNAse A at a final concentration of 50 μg/mL (R4875, Sigma, St. Louis, MI, USA) for 15 min at 37 °C [34, 35].
Tumor cells were seeded on a 6-well plate at a density of 200.000 per well for HL-60 and 100.000 per well for OKP-GS. Test compounds 7 and 10 were added at concentrations of 5, 10, and 20 μM for 72 h. Then, the cells were washed from the culture medium by centrifugation at 1000 rpm for 5 min, washed again with PBS, then fixed with ice-cold ethanol during constant shaking and incubated at −20 °C for 24 h. After that, we washed it from alcohol by centrifugation, washed it again with PBS and added a solution containing 100 μg/mL RNase A and 10 μg/mL propidium iodide (PI), incubated for 40 min in the dark and measure it on a Cytomics FC500 Beckman Coulter flow cytometer (FL4 channel for PI). Received data were analyzed with the help of Kaluza 2.0 Software (Beckman Coulter, Brea, CA, USA).

Row | Compound | Living cells (OKP-GS cells [1]; 5 μM) | Living cells (OKP-GS cells [1]; 10 μM) | Level of apoptosis compared with sorafnib (OKP-GS cells [1]; 20 μM) | Living cells (OKP-GS cells [1]; 20 μM) | Number of necrotic cells (OKP-GS cells [1]) | Cells in G1 phase (OKP-GS cells [2]; 5 μM) | Cells in G2/M phase (OKP-GS cells [2]; 5 μM) | Cells in S phase (OKP-GS cells [2]; 5 μM) | Cells in G1 phase (OKP-GS cells [2]; 10 μM) | Cells in G2/M phase (OKP-GS cells [2]; 10 μM) | Cells in S phase (OKP-GS cells [2]; 10 μM) | Cells in G1 phase (OKP-GS cells [2]; 20 μM) | Cells in G2/M phase (OKP-GS cells [2]; 20 μM) | Cells in S phase (OKP-GS cells [2]; 20 μM)
1 | O=C(Nc1cccc(C(F)(F)F)c1)c1ccc(Cn2cnc3c(Cl)nc(Cl)nc32)cc1 [Compound 7, 4-((2,6-Dichloro-9H-purin-9-yl)methyl)-N-(3-(trifluoromethyl)phenyl)benzamide] | 83,07 | 56,68 | more than two-fold higher level of apoptosis | 23,92 | ≤ 7.3% | 60.9% | 23.53% and 23.5% | 14.2% | 55.5% | 26.02% and 26.0% | 17.7% | 51.2% | 29.94% and 29.9% | 17.4%
2 | Cc1cn(-c2cc(NC(=O)c3ccc(Cn4cnc5c(Cl)nc(Cl)nc54)cc3)cc(C(F)(F)F)c2)cn1 [Compound 10, 4-((2,6-Dichloro-9H-purin-9-yl)methyl)-N-(3-(4-methyl-1H-imidazol-1-yl)-5-(trifluoromethyl)-phenyl)benzamide] | 70,22 | 44,89 | more than two-fold higher level of apoptosis | 21,99 | ≤ 7.3% | 56.9% | 24.3% | 16.8% | 53.3% | 24.2% | 21.5% | – | 25.3% | 19.3%
3 | CNC(=O)c1cc(Oc2ccc(NC(=O)Nc3ccc(Cl)c(C(F)(F)F)c3)cc2)ccn1 [Sorafenib, sorafenib, reference compound] | – | – | – | – | – | – | – | – | – | – | – | 61.9% | 19.7% | 17.3%
